According to PubChem BioAssay AID292 (DTP/NCI, 2004):
“And” between values parts separate entries of the source, which are not always exact repeats. Equal values may be shown once. Toxic doses and inconclusive results are not listed.

Test system: B6C3F1 mice, ip Sarcoma M5076, median survival T/C
Test: NCI In Vivo Anticancer Drug Screen. Data for tumor model Sarcoma M5076 (intraperitoneal) in B6C3F1 mice
Conditions: endpoint: median survival time, higher = longer survival
In short: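 Survival measured in treated (T) and vehicle control (C) mice with transplantable tumour; result given as T divided by C.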

[1] = dose: 6.25 mg/kg/injection, schedule: Q04DX004 (ip), vehicle: water
[2] = dose: 12.5 mg/kg/injection, schedule: Q04DX004 (ip), vehicle: water
[3] = dose: 25.0 mg/kg/injection, schedule: Q04DX004 (ip), vehicle: suspension in saline
[4] = dose: 50.0 mg/kg/injection, schedule: Q04DX004 (ip), vehicle: suspension in saline
[5] = dose: 100.0 mg/kg/injection, schedule: Q04DX004 (ip), vehicle: suspension in saline
[6] = dose: 200.0 mg/kg/injection, schedule: Q04DX004 (ip), vehicle: suspension in saline
[7] = dose: 50.0 mg/kg/injection, schedule: Q04DX004 (ip), vehicle: Klucel (hydroxypropylcellulose) (HPC)
[8] = dose: 25.0 mg/kg/injection, schedule: Q04DX004 (ip), vehicle: saline with Tween-80
[9] = dose: 50.0 mg/kg/injection, schedule: Q04DX004 (ip), vehicle: saline with Tween-80
[10] = dose: 100.0 mg/kg/injection, schedule: Q04DX004 (ip), vehicle: saline with Tween-80
[11] = dose: 200.0 mg/kg/injection, schedule: Q04DX004 (ip), vehicle: saline with Tween-80
[12] = dose: 400.0 mg/kg/injection, schedule: Q04DX004 (ip), vehicle: saline with Tween-80
[13] = dose: 12.5 mg/kg/injection, schedule: Q04DX004 (ip), vehicle: suspension in saline
[14] = dose: 100.0 mg/kg/injection, schedule: Q04DX004 (ip), vehicle: Klucel (hydroxypropylcellulose) (HPC)
[15] = dose: 200.0 mg/kg/injection, schedule: Q04DX004 (ip), vehicle: Klucel (hydroxypropylcellulose) (HPC)
[16] = dose: 50.0 mg/kg/injection, schedule: Q04DX004 (ip), vehicle: saline
[17] = dose: 100.0 mg/kg/injection, schedule: Q04DX004 (ip), vehicle: saline
[18] = dose: 3.12 mg/kg/injection, schedule: Q04DX004 (ip), vehicle: saline
[19] = dose: 6.25 mg/kg/injection, schedule: Q04DX004 (ip), vehicle: saline
[20] = dose: 12.5 mg/kg/injection, schedule: Q04DX004 (ip), vehicle: saline
[21] = dose: 25.0 mg/kg/injection, schedule: Q04DX004 (ip), vehicle: saline

COc1ccc2c(c1)-c1nn(CCCN(C)C)c3ccc([N+](=O)[O-])c(c13)N2
T/C [1]: 118 % of control
T/C [2]: 120 % of control
T/C (dose: 50.0 mg/kg/injection, schedule: Q04DX004 (ip), vehicle: water): 156 % of control and 170 % of control
T/C (dose: 100.0 mg/kg/injection, schedule: Q04DX004 (ip), vehicle: water): 96 % of control

CNc1nc(N(C)C)nc(N(C)C)n1
T/C [3]: 92 % of control and 100 % of control
T/C [4]: 102 % of control and 109 % of control
T/C [5]: 113 % of control and 114 % of control
T/C [6]: 117 % of control and 120 % of control

CCCCCCCCCCCC1NC(=S)NC(=O)C1C#N (stereo not given)
T/C [7]: 91 % of control

Nc1n[n+](-c2ccccc2)no1
T/C [1]: 111 % of control and 117 % of control
T/C (dose: 12.5 mg/kg/injection, schedule: Q01DX009 (ip), vehicle: water): 151 % of control
T/C [2]: 118 % of control
T/C (dose: 25.0 mg/kg/injection, schedule: Q01DX009 (ip), vehicle: water): 168 % of control
T/C (dose: 50.0 mg/kg/injection, schedule: Q01DX009 (ip), vehicle: water): 172 % of control and 235 % of control

Nc1ccn([C@@H]2C=C(CO)[C@@H](O)[C@H]2O)c(=O)n1
T/C (dose: 0.13 mg/kg/injection, schedule: Q01DX013 (ip), vehicle: saline): 96 % of control
T/C (dose: 0.25 mg/kg/injection, schedule: Q01DX013 (ip), vehicle: saline): 104 % of control
T/C (dose: 0.5 mg/kg/injection, schedule: Q01DX013 (ip), vehicle: saline): 105 % of control

NC(C(=O)O)C1=CCCC1 (stereo not given)
T/C [8]: 102 % of control
T/C [9]: 99 % of control
T/C [10]: 98 % of control
T/C [11]: 98 % of control
T/C [12]: 87 % of control

O=C(N/N=C/c1ccco1)c1ccc(OCc2nc3ccccc3[nH]2)cc1
T/C [8]: 97 % of control
T/C [9]: 95 % of control
T/C [10]: 96 % of control
T/C [11]: 90 % of control

CC(=O)OCCN1CCOC(O)(c2cccc(C(F)(F)F)c2)C1 (stereo not given)
T/C (dose: 11.25 mg/kg/injection, schedule: Q04DX004 (ip), vehicle: saline with Tween-80): 97 % of control
T/C (dose: 22.5 mg/kg/injection, schedule: Q04DX004 (ip), vehicle: saline with Tween-80): 96 % of control
T/C (dose: 45.0 mg/kg/injection, schedule: Q04DX004 (ip), vehicle: saline with Tween-80): 97 % of control
T/C (dose: 90.0 mg/kg/injection, schedule: Q04DX004 (ip), vehicle: saline with Tween-80): 100 % of control
T/C (dose: 180.0 mg/kg/injection, schedule: Q04DX004 (ip), vehicle: saline with Tween-80): 98 % of control

CCOC(=O)C1=C(Nc2ccc(OC)cc2)C(N)=NC1=N
T/C [13]: 102 % of control
T/C [3]: 100 % of control
T/C [9]: 101 % of control
T/C [4]: 111 % of control
T/C [10]: 99 % of control
T/C [5]: 101 % of control
T/C [11]: 102 % of control
T/C [6]: 105 % of control
T/C [12]: 106 % of control
T/C (dose: 800.0 mg/kg/injection, schedule: Q04DX004 (ip), vehicle: saline with Tween-80): 101 % of control

COC12[C@@H]3N[C@@H]3CN1C1=C(C(=O)C(NCCSSCCNC3=C(C)C(=O)C4=C(C3=O)C(COC(N)=O)[C@]3(OC)C5N[C@@H]5CN43)=C(C)C1=O)[C@@H]2COC(N)=O (stereo not given in full)
T/C (dose: 3.0 mg/kg/injection, schedule: Q04DX004 (ip), vehicle: other): 161 % of control
T/C (dose: 6.0 mg/kg/injection, schedule: Q04DX004 (ip), vehicle: other): 216 % of control
T/C (dose: 12.0 mg/kg/injection, schedule: Q04DX004 (ip), vehicle: other): 91 % of control
T/C (dose: 12.5 mg/kg/injection, schedule: Q04DX004 (ip), vehicle: other): 253 % of control

CC(CNC(=O)C12CC3CC(CC(C3)C1)C2)NC(=O)C12CC3CC(CC(C3)C1)C2 (stereo not given)
T/C (dose: 25.0 mg/kg/injection, schedule: Q04DX004 (ip), vehicle: other): 94 % of control
T/C (dose: 50.0 mg/kg/injection, schedule: Q04DX004 (ip), vehicle: other): 98 % of control
T/C (dose: 100.0 mg/kg/injection, schedule: Q04DX004 (ip), vehicle: other): 90 % of control
T/C (dose: 200.0 mg/kg/injection, schedule: Q04DX004 (ip), vehicle: other): 98 % of control

COC1C(CO)OC(n2cnc3c(=S)nc(N)[nH]c32)C1O (stereo not given)
T/C [7]: 93 % of control
T/C [14]: 100 % of control
T/C [15]: 105 % of control

O=C1C(=O)c2cccnc2-c2ncccc21
T/C (dose: 0.38 mg/kg/injection, schedule: Q04DX004 (ip), vehicle: Klucel (hydroxypropylcellulose) (HPC)): 101 % of control
T/C (dose: 0.75 mg/kg/injection, schedule: Q04DX004 (ip), vehicle: Klucel (hydroxypropylcellulose) (HPC)): 109 % of control
T/C (dose: 1.5 mg/kg/injection, schedule: Q04DX004 (ip), vehicle: Klucel (hydroxypropylcellulose) (HPC)): 104 % of control
T/C (dose: 3.0 mg/kg/injection, schedule: Q04DX004 (ip), vehicle: Klucel (hydroxypropylcellulose) (HPC)): 105 % of control
T/C (dose: 6.0 mg/kg/injection, schedule: Q04DX004 (ip), vehicle: Klucel (hydroxypropylcellulose) (HPC)): 110 % of control

O=C(Nc1cccc(NC(=O)c2nn[nH]n2)n1)c1nn[nH]n1
T/C [7]: 99 % of control
T/C [14]: 102 % of control
T/C [15]: 94 % of control

NCCCC(N)(C(=O)O)C(F)F (stereo not given)
T/C [16]: 96 % of control
T/C [17]: 99 % of control
T/C (dose: 200.0 mg/kg/injection, schedule: Q04DX004 (ip), vehicle: saline): 99 % of control
T/C (dose: 400.0 mg/kg/injection, schedule: Q04DX004 (ip), vehicle: saline): 99 % of control
T/C (dose: 800.0 mg/kg/injection, schedule: Q04DX004 (ip), vehicle: saline): 102 % of control

NC(=O)CCC(N)C(=O)O (stereo not given)
T/C [18]: 100 % of control
T/C [19]: 104 % of control and 105 % of control
T/C [20]: 97 % of control and 99 % of control
T/C [21]: 98 % of control and 108 % of control
T/C [16]: 105 % of control and 111 % of control
T/C [17]: 103 % of control and 124 % of control

NC(Cc1ccc[se]1)C(=O)O (stereo not given)
T/C (dose: 12.5 mg/kg/injection, schedule: Q04DX004 (ip), vehicle: saline with Tween-80): 94 % of control
T/C [8]: 103 % of control
T/C [9]: 109 % of control

CN(C)N=Nc1ccc(C(N)=O)cc1
T/C [8]: 120 % of control and 121 % of control
T/C [10]: 151 % of control
T/C [11]: 163 % of control
T/C [12]: 109 % of control

CN=C(N)N/N=C(\C)c1ccc2sc3ccc(/C(C)=N/NC(N)=NC)cc3c2c1
T/C [8]: 113 % of control

CC(C)(C)CCC(Br)CBr (stereo not given)
T/C [18]: 98 % of control
T/C (dose: 3.12 mg/kg/injection, schedule: Q04DX004 (ip), vehicle: suspension in saline): 95 % of control
T/C [19]: 102 % of control
T/C (dose: 6.25 mg/kg/injection, schedule: Q04DX004 (ip), vehicle: suspension in saline): 97 % of control
T/C [20]: 99 % of control
T/C [13]: 99 % of control
T/C [21]: 100 % of control
T/C [16]: 100 % of control
T/C [4]: 100 % of control and 106 % of control
T/C [5]: 111 % of control
T/C [6]: 106 % of control
T/C (dose: 400.0 mg/kg/injection, schedule: Q04DX004 (ip), vehicle: suspension in saline): 93 % of control

O=[n+]1c2c(n([O-])c3ccccc31)CCC2
T/C (dose: 21.9 mg/kg/injection, schedule: Q04DX004 (ip), vehicle: saline with Tween-80): 103 % of control
T/C (dose: 43.75 mg/kg/injection, schedule: Q04DX004 (ip), vehicle: saline with Tween-80): 102 % of control
T/C (dose: 87.5 mg/kg/injection, schedule: Q04DX004 (ip), vehicle: saline with Tween-80): 104 % of control
T/C (dose: 175.0 mg/kg/injection, schedule: Q04DX004 (ip), vehicle: saline with Tween-80): 107 % of control and 108 % of control
T/C (dose: 350.0 mg/kg/injection, schedule: Q04DX004 (ip), vehicle: saline with Tween-80): 109 % of control and 110 % of control

O=C(CSc1nnc(CSc2ccc(Cl)cc2)n1-c1ccccc1)NC(=O)Nc1ccccc1
T/C (dose: 4.69 mg/kg/injection, schedule: Q04DX004 (ip), vehicle: Klucel (hydroxypropylcellulose) (HPC)): 103 % of control
T/C (dose: 9.38 mg/kg/injection, schedule: Q04DX004 (ip), vehicle: Klucel (hydroxypropylcellulose) (HPC)): 102 % of control
T/C (dose: 18.75 mg/kg/injection, schedule: Q04DX004 (ip), vehicle: Klucel (hydroxypropylcellulose) (HPC)): 88 % of control
T/C (dose: 37.5 mg/kg/injection, schedule: Q04DX004 (ip), vehicle: Klucel (hydroxypropylcellulose) (HPC)): 88 % of control and 89 % of control
